Measurements: patent publication US11548893B2 (priority 2017, dated 2023)
pEC50: −log10 of the molar value.

What was measured:
[1] = system: EBOV (mucin-deleted glycoprotein, VSV pseudotype); test: microbe, parasite or virus in culture; type: cell-based, Zaire ebolavirus; conditions: Zaire ebolavirus, Vero, 24 h, read-out: EC50 Pseudotype Assays EBOV
[2] = system: EBOV_FL: full-length Ebola Zaire GP (VSV pseudotype); test: microbe, parasite or virus in culture; type: cell-based, Zaire ebolavirus; conditions: Zaire ebolavirus, Vero, 24 h, read-out: EC50 Pseudotype Assays EBOV_FL
[3] = system: BDBV (mucin-deleted glycoprotein, VSV pseudotype); test: microbe, parasite or virus in culture; type: cell-based, Bundibugyo ebolavirus; conditions: Vesicular stomatitis virus, Vero, 24 h, read-out: EC50 Pseudotype Assays BDBV
[4] = system: SUDV (glycoprotein, VSV pseudotype); test: microbe, parasite or virus in culture; type: cell-based, Sudan ebolavirus; conditions: Vesicular stomatitis virus, Vero, 24 h, read-out: EC50 Pseudotype Assays SUDV
in vitro = conditions: African green monkey, Cytotox CC50
[5] = system: MARV (full-length glycoprotein, VSV pseudotype); test: microbe, parasite or virus in culture; type: cell-based, Marburg marburgvirus; conditions: Vesicular stomatitis virus, Vero, 24 h, read-out: EC50 Pseudotype Assays MARV

SMILES | pEC50 [1] | pEC50 [2] | pEC50 [3] | pEC50 [4] | CC50 (in vitro) [µM] | pEC50 [5]
CC12CC3CC(C(=O)N4CCC5(CCCN5)CC4)(C1)CC(c1ccccc1)(C3)C2 (racemic) [Example A38] | 7.40 | 7.15 | 6.98 | 6.89 | 6.91 | –
C[C@@]12CC3CC(C(=O)N4CCC(N)CC4)(C1)C[C@](c1ccccc1)(C3)C2 [Example C7] | 6.91 | 6.77 | 6.70 | 6.47 | 13 | 5.09
CCC12CC3CC(C(=O)N[C@@H]4CCNC[C@@H]4F)(C1)CC(c1ccccc1)(C3)C2 (mixture of isomers) [Example A23] | 7.39 | 7.70 | 6.51 | 6.30 | 7.8 | 5.45
CCC12CC3CC(C(=O)NC4CCNCC4(C)C)(C1)CC(c1ccccc1)(C3)C2 (racemic) [Example A20] | 7.38 | 7.52 | 6.87 | 6.48 | 5.7 | 5.80
C[C@]12CC3CC(C(=O)N[C@@H]4CCNC[C@H]4F)(C1)C[C@@](c1ccccc1)(C3)C2 [Example B5] | 7.72 | 7.70 | 6.76 | 6.62 | 11.9 | < 5.52
CC12CC3CC(C(=O)N4CCC(N)CC4)(C1)CC(c1ccccc1)(C3)C2 (racemic) [Example A33] | 7.30 | 6.70 | 7.16 | 6.52 | 13.7 | –
CC12CC3CC(C(=O)N4CC5(CCNC5)C4)(C1)CC(c1ccccc1)(C3)C2 (racemic) [Example A49] | 7.64 | 6.72 | 6.96 | 6.70 | 21.9 | –
C[C@@]12CC3CC(C(=O)N4CCC5(CCCN5)CC4)(C1)C[C@](c1ccccc1)(C3)C2 [Example C10] | 7.00 | 6.74 | 7.07 | 6.81 | 12.7 | –
CC12CC3CC(C(=O)NC4CC5CC4CN5)(C1)CC(c1ccccc1)(C3)C2 (racemic) [Example A31] | < 6.00 | – | < 6.00 | < 6.00 | 26 | < 6.00
C[C@@]12CC3CC(CN4CCC(N)CC4)(C1)C[C@](c1ccccc1)(C3)C2 [Example C69] | 6.50 | – | 6.68 | 6.51 | 3.8 | 5.94
C[C@]12CC3CC(C(=O)N4CCC5(CCCN5)CC4)(C1)C[C@@](c1ccccc1)(C3)C2 [Example B10] | 7.35 | 7.30 | 7.15 | 6.96 | 12.3 | –
C[C@@]12CC3CC(C(=O)N[C@H]4CCNC[C@@H]4F)(C1)C[C@](c1ccccc1)(C3)C2 [Example C6] | 6.49 | – | 6.60 | 6.32 | 12.7 | 5.53
C[C@]12CC3CC(CN4CCC(N)CC4)(C1)C[C@@](c1ccccc1)(C3)C2 [Example B69] | 6.37 | – | 6.55 | 6.15 | 4.67 | 6.03
C[C@]12CC3CC(C(=O)N4CCC(N)C5(CC5)C4)(C1)C[C@@](c1ccccc1)(C3)C2 (stereo partly drawn) [Example B9] | 7.60 | 7.22 | 7.07 | 7.12 | 8.9 | –
C[C@@]12CC3CC(C(=O)N[C@@H]4CCNC[C@H]4F)(C1)C[C@](c1ccccc1)(C3)C2 [Example C5] | 6.77 | – | 6.96 | 6.11 | 11.6 | < 5.52
CCC12CC3CC(CN[C@H]4CC[C@H](N)CC4)(C1)CC(c1ccccc1)(C3)C2 (stereo partly drawn) [Example A66] | 6.66 | – | 6.70 | 6.31 | 4.06 | 6.01
